Tests used:
TIGR4 strain = assay: Attachment of TIGR4 strain to ganglioside-coated ELISA plates, short-term incubation; format: binding, S. pneumoniae
Experimental: The ability of the TIGR4, and its nanA and nanB mutants to bind to specific gangliosides is measured. The gangliosides used include mixed gangliosides, asialo-GM1, GM1, GD1a, GD1b, GT1 (Calbiochem) and the GM3 ganglioside (Sigma). The GM3 ganglioside lacks the terminal or internal GalNAcβ1-4Gal sequence involved in pneumococcal binding and is used as a negative control. These mixed, mono-, di- or tri-sialic acid containing gangliosides bind readily to ELISA plates. […] Using ganglioside-coated plates, the ability to attach to these plates by wildtype TIGR4 strain, the stable opaque and transparent phase variants of the TIGR4 strain, the nanA, nanB, and nanA/nanB mutant strains is compared. These analyses include short-term incubation (1 hr) and extended incubations (24 hrs) on ganglioside-coated plates. Attached pneumococci are removed from the ganglioside plates by short incubation (10-15 min.) in Todd Hewitt medium containing 0.5% yeast extract followed by repeated pipetting and plating the released bacteria on blood agar plates. Alternatively 41° C. Todd Hewitt broth agar containing 0.5% yeast extract is poured on top of the attached pneumococci and the colonies are counted through the bottom of the plate. Controls include plates with no pneumococci and plates with no gangliosides but with pneumococci.

[1] = GM1-binding peptide; cited from earlier work
[2] = test system: S. pneumoniae strain EF3030; assay: GLS preincubation of S. pneumoniae strain EF3030 before nasal application; CFU in tissues; format: in vivo; conditions: EF3030 preincubated with GLS, xid mice, four days after nasal application
Experimental: Aliquots (3×10^7 CFUs) of S. pneumoniae were incubated for 30 minutes with 20 μg asialo-GM1 (a-GM1) or 125 μg of mixed GLSs (MG) prior to nasal application. The ON/E, OBs, brain and NW, NALT and lungs were collected four days later and analyzed for numbers of S. pneumoniae. The 0 value on the Y-axis represents the absence of detectable CFUs. Indicated are the mean+one SE of 5 mice and the P-values were obtained following statistical analysis. The data are representative of two separate experiments.
The blood was collected into a heparinized capillary tube from the retroorbital plexus. Mice were disinfected with 70% ethanol prior to collection of nasal wash (NW), kidney, spleen, and lungs. […]
Eight serial, three-fold dilutions were made of tissues and body fluids in sterile Ringer's solution and plated on blood agar plates containing 4 μg/ml of gentamicin sulfate. […] The results were expressed as CFUs/organ, per NW or per ml of blood.
To block GLS binding sites, 3×10^7 CFU of S. pneumoniae strain EF3030 were incubated for 30 min on ice with either 20 μg asialo-GM1 from human brain or 125 μg of mixed GLSs (18% GM1, 55% GD1a, 15% GD1b, 10% GT1b, 2% other GLSs) from bovine brain (Calbiochem-Novabiochem Corporation, Inc., La Jolla, Calif.). […] Tissues were analyzed for CFUs four days later.

| Substance | binding of pneumococci to coated plates (TIGR4 strain) | IC50 [1] | reduction of colonization in CNS ([2]; CNS tissue) | reduction of colonization in lungs ([2]; lungs) |
| --- | --- | --- | --- | --- |
| GM1 | not |  |  |  |
| GM3 [GM-3] | not |  |  |  |
| VWRLLAPPFSNRLLP |  | 1000 nM |  |  |
| asialo-GM1 | bind and attachment |  | 25 fold | 63 fold |

— patent US9132179B2, “Compositions for reducing bacterial carriage and CNS invasion and methods of using same” (The UAB Research Foundation, priority 2003, dated 2015)
